Reference: publication PMC12655338, “Reversing the Warburg Effect: YW3-56 Induces Leukemia Differentiation via AKT-Mediated Glucose Metabolic Reprogramming” (Pharmaceuticals, 2025)

Target: T1, PAD4 (Protein arginine deiminase 4) (Homo sapiens, UniProt Q9UM07)
T1 construct: gene PADI4
Test: colorimetric PAD4 enzyme assay, citrullination of BAEE
Type: biochemical

T1 sequence (Q9UM07 whole entry): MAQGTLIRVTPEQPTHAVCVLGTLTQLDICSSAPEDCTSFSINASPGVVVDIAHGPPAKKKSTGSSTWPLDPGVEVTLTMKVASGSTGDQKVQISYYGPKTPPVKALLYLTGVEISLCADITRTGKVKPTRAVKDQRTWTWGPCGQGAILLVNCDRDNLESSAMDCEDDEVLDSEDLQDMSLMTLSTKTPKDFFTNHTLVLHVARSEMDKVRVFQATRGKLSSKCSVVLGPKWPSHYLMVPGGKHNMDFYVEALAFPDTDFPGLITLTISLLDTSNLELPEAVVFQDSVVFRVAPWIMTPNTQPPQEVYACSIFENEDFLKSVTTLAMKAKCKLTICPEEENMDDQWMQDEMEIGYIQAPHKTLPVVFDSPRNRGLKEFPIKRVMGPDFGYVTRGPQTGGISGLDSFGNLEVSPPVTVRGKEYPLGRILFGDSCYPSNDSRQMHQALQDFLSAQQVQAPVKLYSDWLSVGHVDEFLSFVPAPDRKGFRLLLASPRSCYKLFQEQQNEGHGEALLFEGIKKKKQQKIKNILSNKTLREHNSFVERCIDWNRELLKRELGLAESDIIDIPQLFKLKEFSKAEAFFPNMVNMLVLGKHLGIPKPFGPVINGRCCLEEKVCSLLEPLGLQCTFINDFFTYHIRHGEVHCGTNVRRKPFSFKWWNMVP

Q: For `CN(C)c1ccc2cc(C(=O)N[C@@H](CCCNC(=N)CCl)C(=O)NCc3ccccc3)ccc2c1` [YW3-56], which IC50 is on record?
A: The IC50 was 4.1 ± 0.28 µM.
